Test [1] concerns Escherichia coli 36. The test can be described thus: Synergistic Protecting Effect on experimental mice infection. It is filed as in vivo, ICR strain-mice (infected with Escherichia coli 36). The settings on record: combination 1:1 by weight, subcutaneous, one hour after i.p. challenge, survival over 4 days. On the procedure:
(i) Combination of Compound C (Compound of the present invention) and Ceftizoxime (known antimicrobial agent, hereinafter referred to as CZX) (1:1 by weight).
(ii) Combination of Compound C (Compound of the present invention) and Cefazolin (known antimicrobial agent, hereinafter referred to as CEZ) (1:1 by weight).
4-week-old male ICR strain-mice, weighing 21.5±1.5 g.
1.1×10^5 Colony forming unit of Escherichia coli 36 suspended in 0.5 ml of 5% mucin were intraperitoneally injected.
One hour after challenge, mice were treated subcutaneously with various doses of test compound. The ED50 values were calculated by the probit method from the number of mice surviving 4 days of observation.

The subject of test [2] is Staphylococcus aureus 209P JC-1. Kind of test: in vitro antimicrobial activity, two-fold agar-plate dilution method (MIC). It is filed as cell-based. Particulars: S. aureus 209P JC-1, HI-agar, 37° C., 20 hours. On the procedure:
(§1) In vitro Antimicrobial activity was determined by the two-fold agar-plate dilution method as described below.
(§2) One loopful of an overnight culture of each test strain in Trypticase-soy broth (10^6 viable cells per ml) was streaked on heart infusion agar (HI-agar) containing graded concentrations of the test compound, and the minimal inhibitory concentration (MIC) was expressed in terms of μg/ml after incubation at 37° C. for 20 hours.

The test system of test [3] is Esherichia coli NIHJ JC-2. The description is as above. The settings on record: Escherichia coli, NIHJJC2; E. coli NIHJ JC-2; HI-agar, 37° C., 20 hours. It is filed as cell-based. The method, then: as §1, §2
The target in test [4] is Ia Cephalosporinase (Enterobacter cloacae, UniProt P05364). Kind of test: Inactivation of β-Lactamase, direct spectrophotometric assay with chromogenic cephalosporin. It is filed as biochemical, Enterobacter cloacae 91. The settings on record: 5 min, read-out: Inactivation (%). On the procedure: Ia Cephalosporinase derived from Enterobacter cloacae 91.
Test compound solution (100 μg/ml) was incubated for 5 minutes at 37° C. with β-lactamase before determination of enzymatic activity. β-Lactamase activity was measured by direct spectrophotometric assay using a chromogenic cephalosporin as a substrate. The extent of inactivation was expressed as percent ratio of inactivated activity.

Test [5] has as its target R-TEM Penicillinase (Escherichia coli, UniProt P62593). The test is described as above. It is filed as biochemical, Escherichia coli 18. The settings on record: 100 μg/ml, 5 minutes at 37° C.

Like-named read-outs stand apart in the source and are kept apart here.

Chain of R-TEM Penicillinase (P62593 24-286 limits assumed): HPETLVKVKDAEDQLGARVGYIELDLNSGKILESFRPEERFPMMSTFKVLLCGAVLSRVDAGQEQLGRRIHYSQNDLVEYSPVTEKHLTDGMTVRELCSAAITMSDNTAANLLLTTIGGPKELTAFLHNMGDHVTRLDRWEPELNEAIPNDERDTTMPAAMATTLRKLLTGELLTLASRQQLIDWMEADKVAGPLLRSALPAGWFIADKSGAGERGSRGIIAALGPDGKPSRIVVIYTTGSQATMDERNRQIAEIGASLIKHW
Chain of Ia Cephalosporinase (P05364 21-381): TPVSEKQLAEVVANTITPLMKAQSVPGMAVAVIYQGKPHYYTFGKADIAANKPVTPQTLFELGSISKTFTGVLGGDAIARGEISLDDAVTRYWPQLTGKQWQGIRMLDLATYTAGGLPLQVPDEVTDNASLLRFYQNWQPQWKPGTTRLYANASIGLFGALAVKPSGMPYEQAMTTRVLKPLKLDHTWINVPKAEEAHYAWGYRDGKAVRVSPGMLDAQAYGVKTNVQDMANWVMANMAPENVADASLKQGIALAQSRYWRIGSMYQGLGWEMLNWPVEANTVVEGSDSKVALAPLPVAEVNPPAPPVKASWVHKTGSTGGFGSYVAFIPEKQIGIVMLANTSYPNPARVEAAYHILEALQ

For `Cc1nnc(SCC2=C(C(=O)O)N3C(=O)[C@@H](NC(=O)Cn4cnnn4)[C@H]3SC2)s1` [CEZ, Cefazolin, reference compound], in test [1] ((ii) with CEZ), the ED50 values worked out at 20.8 mg/kg.

Regarding `CO/N=C(\C(=O)N[C@@H]1C(=O)N2C(C(=O)O)=CCS[C@H]12)c1csc(N)n1` [CZX, Ceftizoxime, reference compound], the ED50 values in test [1] ((i) with CZX) is 3.42 mg/kg.

In general, MIC refers to the lowest concentration that inhibits growth of the organism. A low value points to greater potency. For `CC(C)(O)[C@@H]1C(=O)N2C(C(=O)[O-])=C(Sc3ccncc3)C[C@H]12.[Na+]` [Compound A, Sodium (5R, 6R)-3-(4-pyridylthio)-6-(1-hydroxy-1-methylethyl)-7-oxo-1-azabicyclo[3.2.0]hept-2-ene-2-carboxylate], the MIC in test [2] and in test [3] was 0.1 µg/mL each time.

As to `Cc1nnc(SC2=C(C(=O)[O-])N3C(=O)[C@@H](C(C)(C)O)[C@H]3C2)s1.[K+]` [Compound B, Potassium (5R, 6R)-3-(5-methyl-1,3,4-thiadiazol-2-ylthio)-6-(1-hydroxy-1-methylethyl)-7-oxo-1-azabicyclo[3.2.0]hept-2-ene-2-carboxylate], the MIC in test [2] and in test [3] was 0.2 µg/mL in each case.

Take `CC(C)(O)[C@H]1C(=O)N2C(C(=O)[O-])=C(Sc3ccncc3)C[C@H]12.[Na+]` [Compound C, Sodium (5R,6S)-3-(4-pyridylthio)-6-(1-hydroxy-1-methylethyl)-7-oxo-1-azabicyclo[3.2.0]hept-2-ene-2-carboxylate]: the ED50 values in test [1] ((i) with CZX) and in test [1] ((ii) with CEZ) was > 112 mg/kg each time. The inhibition at 100 µg/mL in test [4] (100 μg/ml, 5 minutes at 37° C., Ia Cephalosporinase) was > 95%. Also, the “Inactivation (%)” value in test [5] is recorded as > 95%.

On to `Cn1nnnc1SC1=C(C(=O)[O-])N2C(=O)[C@@H](C(C)(C)O)[C@H]2C1.[K+]` [Compound D, Potassium (5R,6R)-3-(1-methyl-1H-tetrazol-5-ylthio)-6-(1-hydroxy-1-methylethyl)-7-oxo-1-azabicyclo[3.2.0]hept-2-ene-2-carboxylate], for which, in test [4], the inhibition at 100 µg/mL is > 95%. Besides, the “Inactivation (%)” value in test [5] is reported as > 95%.
